Source: patent publication US11839210B1, “Plant growth promoter with strigolactones regulation activities” (King Abdullah University of Science and Technology, priority 2017, dated 2023)

Tests used:
[1] = system: epi-5DS (5-deoxystrigol); test: LC-MS/MS levels of epi-5DS in rice root exudates and roots; format: in vivo; details: −Pi, 5 μM zaxinone
Description: For the analysis of SLs, one week-old seedlings were further transferred into 50 ml falcon tube (three seedlings per tube) containing Hoagland nutrient solution with K2HPO4·2H2O (+Pi) and grown in the growth cabinet for one week. The rice seedlings were then subjected to phosphate deficiency for another one week period. On the day of root exudates collection, rice seedlings were first treated with 5 μM zaxinone for 6 h and then root exudates and root tissues were collected from each tube for LC-MS/MS analysis and Striga bioassays.
For the quantification of 4-deoxyorobanchol in rice root exudates, 50 ml of root exudate spiked with 0.672 ng of D6-5-deoxystrigol, was brought on a 500 mg/3 ml fast SPE C18 column preconditioned with 6 ml of methanol and 6 ml of water. After washing with 6 ml of water, strigolactones were eluted in 5 ml of acetone. The 4-deoxyorobanchol fraction (acetone-water solution) was concentrated to SLs aqueous solution (˜1 ml), followed by extraction with 1 ml of ethyl acetate. Then 750 μl of 4-deoxyorobanchol enriched organic phase was transferred to a 1.5 ml tube and evaporated to dryness under vacuum. The residue was dissolved in 100 μl of acetonitrile:water (25:75, v:v) and filtered through a 0.22 μm filter for LC-MS/MS analysis.
For the quantification of 4-deoxyorobanchol in rice root, plant tissue material was lyophilized and ground. 30 mg root tissue spiked with 0.672 ng of D6-5-deoxystrigol was extracted with 2 ml of ethyl acetate in an ultrasound bath (Branson 3510 ultrasonic bath) for 15 minutes, followed by centrifugation for 8 minutes at 3800 rpm at 4° C. The supernatant was collected and the pellet was re-extracted with 2 ml of ethyl acetate. The two supernatants were then combined and dried under vacuum. The residue was dissolved in 100 μl of ethyl acetate and 2 ml of hexane. The resulting extract solution was loaded on a Silica gel SPE column (500 mg/3 ml) preconditioned with 3 ml of ethyl acetate and 3 ml of Hexane. After washing with 3 ml of Hexane, 4-deoxyorobanchol was eluted in 3 ml of ethyl acetate and evaporated to dryness under vacuum. The residue was re-dissolved in 200 μl of acetonitrile:water (25:75, v:v) and filtered through a 0.22 μm filter for LC-MS/MS analysis.
4-Deoxyorobanchol was analyzed by using HPLC-Q-Trap-MS/MS with MRM mode. Chromatographic separation was achieved on an Agilent 1200 HPLC system with an Acquity UPLC BEH C18 column (50×2.1 mm; 1.7 μm; Waters Corp.). Mobile phases consisted of water:acetonitrile (95:5, v:v, A) and acetonitrile (B), both containing 0.1% formic acid. […]
The levels of epi-5DS (5-deoxystrigol) in root exudates (FIG. 15A) and roots (FIG. 15B) for WT and zas mutant rice under −Pi conditions (phosphate deficient) with zaxinone (5 μM) treatment were determined by LC-MS/MS. […]

[2] = system: D10; test: qRT-PCR of D10 gene expression in rice roots after zaxinone treatment; format: in vivo, rice (Oryza sativa Nipponbare); details: −Pi, 6 h
Description: (§1) For the analysis of SL transcript levels in the zas mutant, one week-old seedlings were grown hydroponically in half-strength modified Hoagland nutrient solution with K2HPO4·2H2O (+Pi) and without K2HPO4·2H2O (−Pi) for 7 days. Seedlings were further treated with zaxinone for 6 h and tissues were collected.
(§2) Total RNA was extracted from the roots and shoots using a Qiagen Plant RNeasy Kit according to the manufacturer's instruction. cDNA was synthesized from 1 μg of total RNA using iScript cDNA Synthesis Kit (BIO-RAD Laboratories, Inc, 2000 Alfred Nobel Drive, Hercules, CA, Cat. No #170-8890) according to instructions in the user manual. For mycorrhizal samples, single-strand cDNA was synthesized from 1 μg of total RNA using Super-Script II (Invitrogen) according to instructions in the user manual. Primers used for real-time quantitative RT-PCR (qRT-PCR) analysis are listed below in Table 3. qRT-PCR was performed using SYBR Green Master Mix (Applied Biosystems; www.lifetechnologies.com) in a StepOnePlus (Life Technologies, Carlsbad, CA, USA). For mycorrhizal samples, qRT-PCR was performed using a Rotor-Gene Q 5plex HRM Platform (Qiagen). The 2-ΔCt method was used to calculate the relative gene expression levels and rice Ubiquitin (OsUBQ or OsRubQ1) gene was used as the internal control to normalize target gene expression.
(§3) 14-day-old rice seedlings were transferred to new hydroponic pots containing fresh media with or without chemicals for 6 hours. SL biosynthetic (D27, D10, D17 and MAX1-Os900) gene expression were determined under −Pi conditions (phosphate deficient) with zaxinone (2.5 and 5 μM) treatment of both Nipponbare wild-type (WT) rice roots and zas mutant rice roots. The expression levels (1301) were detected by quantitative RT-PCR. Ubiquitin was used as a reference gene. Mock treatment (control) treatment consisted of 0.1% acetone. Bars (1302) show comparisons between the treatments and represent mean±SD (n=3). Decrease in SLs levels in the plants treated with zaxinone ranged from approximately 40% to 70%.

[3] = system: D17; test: qRT-PCR of D17 gene expression in rice roots after zaxinone treatment; format: in vivo, rice (Oryza sativa Nipponbare); details: −Pi, 6 h
Description: as §1, §2, §3

[4] = WT rice roots, 2.5 μM zaxinone, WT mock approx. 1.0
[5] = WT rice roots, 5.0 μM zaxinone, WT mock approx. 1.0
[6] = zas mutant rice roots, 2.5 μM zaxinone
[7] = zas mutant rice roots, 2.5 μM zaxinone, zas mock approx. 2.5
[8] = zas mutant rice roots, 5.0 μM zaxinone
[9] = zas mutant rice roots, 5.0 μM zaxinone, zas mock approx. 2.5

CC(=O)/C=C/C=C(C)/C=C/C1=C(C)C[C@@H](O)CC1(C)C [zaxinone, 3-OH-β-apo-13-carotenone]
decrease of epi-5DS level in root exudates, mock to zaxinone ([1]; WT rice): around 75% | decrease of epi-5DS level in roots, mock to zaxinone ([1]; WT rice): around 50% | decrease of epi-5DS level in root exudates, mock to zaxinone ([1]; zas mutant rice): approximately 64% | decrease of epi-5DS level in roots, mock to zaxinone ([1]; zas mutant rice): around 75% | decrease of D10 relative expression vs mock ([2]; WT rice roots, 2.5 μM zaxinone): approximately 75% | D10 relative expression [2, 4]: approximately 0.25 | decrease of D10 relative expression vs mock ([2]; WT rice roots, 5.0 μM zaxinone): ~70% | D10 relative expression [2, 5]: approximately 0.3 | decrease of D10 relative expression vs mock [2, 6]: approximately 60% | D10 relative expression [2, 7]: approximately 1.0 | decrease of D10 relative expression vs mock [2, 8]: ~68% | D10 relative expression [2, 9]: approximately 0.8 | decrease of D17 relative expression vs mock ([3]; WT rice roots, 2.5 μM zaxinone): approximately 75% | D17 relative expression [3, 4]: approximately 0.25 | decrease of D17 relative expression vs mock ([3]; WT rice roots, 5.0 μM zaxinone): ~70% | D17 relative expression [3, 5]: approximately 0.3 | decrease of D17 relative expression vs mock [3, 6]: approximately 60% | D17 relative expression [3, 7]: approximately 1.0 | decrease of D17 relative expression vs mock [3, 8]: ~68% | D17 relative expression [3, 9]: approximately 0.8
